Patent US20050158818A1, “Cephalosporin C acylases” (ANTIBIOTICOS S.p.A., priority 2004, published 2005)
Numbering of substitutions follows the chain as printed. Names and notes keep the numbering of the source. Read-outs that look alike come from different tables or passages of the source.

Legend:
[1] = system: HisVAC cephalosporin C acylase (Pseudomonas N176 derived, parent Seq. ID #1) variant H296N; assay: Hydrolysis kinetics of mutant H296N; assay type: biochemical; details: for Km: 0.1 M phosphate; for Km / Vmax: pH 8.0, 37° C.; for Vmax: converted in units at 25° C.; for Inhibition after: substrate concentration after which inhibition occurs
Protocol: (§1) 1. Site-Directed Mutagenesis
(§2) Kinetics parameters of the mutants and HisVAC acylase were determined measuring the hydrolysis of cephalosporin C or glutaryl 7-ACA in 0.1 M phosphate buffer solution, pH 8.0 at 37° C. (then converted in units at 25° C.). The amount of 7-ACA is determined spectrophotometrically, using a standard curve, measuring the yellow intensity at 415 nm (Schiff base), resulting upon reaction with p-dimethylaminobenzaldehyde, using modified Bulasingham method (Biochem. Biophys. Acta 276, 250, 1972).
(§3) One acylase unit is the amount of enzyme (in solution or immobilized) which, under the assay conditions, produces one micromole of 7-ACA/minute.

[2] = system: HisVAC cephalosporin C acylase (Pseudomonas N176 derived, parent Seq. ID #1) variant H296T; assay: Hydrolysis kinetics of mutant H296T; assay type: biochemical; details: for Km: 0.1 M phosphate; for Km / Vmax: pH 8.0, 37° C.; for Vmax: converted in units at 25° C.; for Inhibition after: substrate concentration after which inhibition occurs
Protocol: as §1, §2, §3

[3] = system: HisVAC cephalosporin C acylase (Pseudomonas N176 derived, parent Seq. ID #1) variant A215E; assay: Hydrolysis kinetics of mutant A215E; assay type: biochemical; details: for Km: 0.1 M phosphate; for Km / Vmax: pH 8.0, 37° C.; for Vmax: converted in units at 25° C.
Protocol: as §1, §2, §3

[4] = system: HisVAC cephalosporin C acylase (Pseudomonas N176 derived, parent Seq. ID #1) variant H296S; assay: Hydrolysis kinetics of mutant H296S; assay type: biochemical; details: for Km: 0.1 M phosphate; for Km / Vmax: pH 8.0, 37° C.; for Vmax: converted in units at 25° C.; for Inhibition after: substrate concentration after which inhibition occurs
Protocol: as §1, §2, §3

[5] = system: HisVAC cephalosporin C acylase, wild-type (designed on Pseudomonas N176 acylase, Phe270, C-terminal LEHHHHHH), Seq. ID #1; assay: Hydrolysis kinetics of wild-type HisVAC acylase; assay type: biochemical; details: for Km: 0.1 M phosphate; for Km / Vmax: pH 8.0, 37° C.; for Vmax: converted in units at 25° C.; for Inhibition after: substrate concentration after which inhibition occurs
Protocol: Said sequence was introduced in order to make the subsequent chromatographic purification easier, using pET24 plasmid as the cloning and expression vector. This plasmid is resistant to kanamycin and is able to insert a “His-Tag sequence” at the C-terminus of the protein and a “T7-Tag sequence” at the N-terminus.
as §2, §3

[6] = system: HisVAC cephalosporin C acylase (Pseudomonas N176 derived, parent Seq. ID #1) variant A215V; assay: Hydrolysis kinetics of mutant A215V; assay type: biochemical; details: for Km: 0.1 M phosphate; for Km / Vmax: pH 8.0, 37° C.; for Vmax: converted in units at 25° C.; for Inhibition after: substrate concentration after which inhibition occurs
Protocol: as §1, §2, §3

[7] = system: HisVAC cephalosporin C acylase (Pseudomonas N176 derived, parent Seq. ID #1) variant A215Y; assay: Hydrolysis kinetics of mutant A215Y; assay type: biochemical; details: for Km: 0.1 M phosphate; for Km / Vmax: pH 8.0, 37° C.; for Vmax: converted in units at 25° C.; for Inhibition after: substrate concentration after which inhibition occurs
Protocol: as §1, §2, §3

[8] = system: HisVAC cephalosporin C acylase (Pseudomonas N176 derived, parent Seq. ID #1) variant A215L; assay: Hydrolysis kinetics of mutant A215L; assay type: biochemical; details: for Km: 0.1 M phosphate; for Km / Vmax: pH 8.0, 37° C.; for Vmax: converted in units at 25° C.; for Inhibition after: substrate concentration after which inhibition occurs
Protocol: as §1, §2, §3

[9] = system: HisVAC cephalosporin C acylase (Pseudomonas N176 derived, parent Seq. ID #1) variant A215F; assay: Hydrolysis kinetics of mutant A215F; assay type: biochemical; details: for Km: 0.1 M phosphate; for Km / Vmax: pH 8.0, 37° C.; for Vmax: converted in units at 25° C.
Protocol: as §1, §2, §3

[10] = molecular target: HisVAC cephalosporin C acylase (Pseudomonas N176 derived, parent Seq. ID #1) variant A215Y; assay: Product inhibition of mutant A215Y; assay type: biochemical
Protocol: as §2

[11] = molecular target: HisVAC cephalosporin C acylase (Pseudomonas N176 derived, parent Seq. ID #1) variant A215F; assay: Product inhibition of mutant A215F; assay type: biochemical
Protocol: as §2

[12] = Stability of the enzyme (pH, temperature); assay type: physicochemical; details: temperatures higher than 25° C.
Protocol: Purified HisVAC is stable after 120 min incubation at pH ranging from 5 to 9. Enzymatic activity increases as a function of the pH of the reaction solution, in the range 5-10, reaching the highest value at 40° C. after 30 minutes reaction.

[13] = Acylase kinetics, hydrolysis of glutaryl 7-ACA (7-ACA determined at 415 nm with p-dimethylaminobenzaldehyde); assay type: biochemical; details: substrate Gl-7-ACA; for Km: 0.1 M phosphate buffer pH 8.0, 37° C.; for Vmax (U/mg): 0.1 M phosphate buffer pH 8.0, 37° C. (converted in units at 25° C.); for Inhibition after: substrate concentration after which inhibition is seen
Protocol: as §2, §3

[14] = Acylase kinetics, hydrolysis of cephalosporin C (7-ACA determined at 415 nm with p-dimethylaminobenzaldehyde); assay type: biochemical; details: substrate Cef C; for Km: 0.1 M phosphate buffer pH 8.0, 37° C.; for Vmax (U/mg): 0.1 M phosphate buffer pH 8.0, 37° C. (converted in units at 25° C.); for Inhibition after: substrate concentration after which inhibition is seen
Protocol: as §2, §3

[15] = substrate concentration after which inhibition occurs
[16] = substrate Gl-7-ACA, read-out: Ki

Molecule: CC(=O)OCC1=C(C(=O)O)N2C(=O)[C@@H](NC(=O)CCCC(=O)O)[C@H]2SC1 [Gl-7-ACA, glutaryl-7-ACA]
- Km [1]: 2.8 mM
- Vmax [1]: 4.3 U/mg
- Inhibition after [1]: 50 mM
- Km [2]: 2 mM
- Vmax [2]: 0.67 U/mg
- Inhibition after [2]: 50 mM
- Km [3]: 1 mM
- Vmax [3]: 2 U/mg
- Inhibition after [3, 15]: 25 mM
- Km [4]: 0.7 mM
- Vmax [4]: 2.0 U/mg
- Inhibition after [4]: 25 mM
- Km [5]: 1.6 mM
- Vmax [5]: 24.2 U/mg
- Inhibition after [5]: 12.5 mM
- Km [6]: 1.2 mM
- Vmax [6]: 12.5 U/mg
- Inhibition after [6]: 12.5 mM
- Km [7]: 1.7 mM
- Vmax [7]: 16 U/mg
- Inhibition after [7]: 12.5 mM
- Km [8]: 1.7 mM
- Vmax [8]: 6.2 U/mg
- Inhibition after [8]: 12.5 mM
- Km [9]: 0.85 mM
- Vmax [9]: 3.3 U/mg
- Inhibition after [9, 15]: 50 mM

Molecule: CC(=O)OCC1=C(C(=O)O)N2C(=O)[C@@H](NC(=O)CCC[C@@H](N)C(=O)O)[C@H]2SC1 [Cef C, cephalosporin C]
- Km [1]: 5.2 mM
- Vmax [1]: 0.27 U/mg
- Inhibition after [1]: 50 mM
- Km [2]: 4.8 mM
- Vmax [2]: 0.2 U/mg
- Inhibition after [2]: 60 mM
- Km [3]: 3.2 mM
- Vmax [3]: 0.16 U/mg
- Km [4]: 7.7 mM
- Vmax [4]: 0.63 U/mg
- Inhibition after [4]: 25 mM
- Km [5]: 8.2 mM
- Vmax [5]: 0.23 U/mg
- Inhibition after [5]: 50 mM
- Km [6]: 8.3 mM
- Vmax [6]: 0.78 U/mg
- Inhibition after [6]: 50 mM
- Km [7]: 6.9 mM
- Vmax [7]: 1.8 U/mg
- Inhibition after [7]: 25 mM
- Km [8]: 9.5 mM
- Vmax [8]: 0.75 U/mg
- Inhibition after [8]: 12.5 mM
- Km [9]: 7.7 mM
- Vmax [9]: 0.21 U/mg

Molecule: N[C@H](CCCC(=O)O)C(=O)O [α-Aminoadipic]
- Ki ([10]; substrate Cef C): no inhibition
- Ki ([11]; substrate Cef C): 85.2 mM

Molecule: CC(=O)OCC1=C(C(=O)O)N2C(=O)[C@@H](N)[C@H]2SC1 [7-ACA, 7-amino-cephalosporanic acid]
- Ki [10, 16]: 11.3 mM
- Ki ([11]; substrate Gl-7-ACA): 4.7 mM

Molecule: O=C(O)CCCC(=O)O [Glutaric Acid]
- Ki [10, 16]: 6.1 mM
- Ki ([11]; substrate Gl-7-ACA): 2.1 mM

B1: A215Y: HisVAC mutant, alanine 215 replaced with Tyr (protein)
chain: MTMAANTDRAVLQAALPPLSGSLPIPGLSASVRVRRDAWGIPHIKASGEADAYRALGFVHSQDRLFQMELTRRKALGRAAEWLGAEAAEADILVRRLGMEKVCRRDFEALGVEAKDMLRAYVAGVNAFLASGAPLPVEYGLLGAEPEPWEPWHSIAVMRRLGLLMGSVWFKLWRMLALPVVGAANALKLRYDDGGRDLLCIPPGAEADRLEADLYTLRPAVDALLKAMGGDASDAAGGGSNNWAVAPGRTATGRPILAGDPHRVFEIPGFYAQHHLACDRFDMIGLTVPGVPGFPHFAHNGKVAYCVTHAFMDIHDLYLEQFAGEGRTARFGNDFEPVAWSRDRIAVRGGADREFDIVETRHGPVIAGDPRDGAALTLRSVQFAETDLSFDCLTRMPGASTVAQLYDATRGWGLIDHNLVAGDVAGSIGHLVRARVPSRPRENGWLPVPGWSGEHEWRGWIPHEAMPRVIDPPGGIIVTANNRVVADDHPDYLCTDCHPPYRAERIMKRLVANPAFAVDDAAAIHADTLSPHVGLLRRRLEALGARDDSAAEGLRQMLVAWDGRMDAASEVASAYNAFRRALTRLVTDRSGLEQAISHPFAAVAPGVSPQGQVWWAVPTLLRDDDAGMLKGWSWDQALSEALSVASQNLTGRSWGEEHRPRFTHPLATQFPAWAGLLNPASRPIGGDGDTVLANGLVPSAGPQATYGALSRYVFDVGNWDNSRWVVFHGASGHPASAHYADQNAPWSDCAMVPMLYSWDRIAAEAVTSQELVPALEHHHHHH
- Thermal stability [12]: more stable

B2: H417Y: HisVAC mutant, histidine 417 replaced with Tyr (protein)
chain: B1 chain with Y215A, H417Y
- Km [13]: 4.3 mM
- Vmax (U/mg) [13]: 14.8 U/mg
- Km [14]: 12.3 mM
- Vmax (U/mg) [14]: 0.05 U/mg
- Inhibition after [14]: 50 mM

B3: D416Y-H417Y: HisVAC double mutant, aspartic acid 416 and histidine 417 replaced with Tyr (protein)
chain: B1 chain with Y215A, D416Y, H417Y
- Km [13]: 9 mM
- Vmax (U/mg) [13]: 1.2 U/mg
- Inhibition after [13]: 12.5 mM
- Km [14]: 13.1 mM
- Vmax (U/mg) [14]: 4.2 U/mg
- Inhibition after [14]: 50 mM

B4: D416Y: HisVAC mutant, aspartic acid 416 replaced with Tyr (protein)
chain: B1 chain with Y215A, D416Y
- Km [13]: 1.75 mM
- Vmax (U/mg) [13]: 4.9 U/mg
- Inhibition after [13]: 25 mM
- Km [14]: 7.2 mM
- Vmax (U/mg) [14]: 0.66 U/mg

B5: A215Y-H296S: HisVAC double mutant, alanine 215 replaced with Tyr and histidine 296 replaced with Ser (protein)
chain: B1 chain with H296S
- Km [13]: 4 mM
- Vmax (U/mg) [13]: 2.2 U/mg
- Inhibition after [13]: 25 mM
- Km [14]: 10 mM
- Vmax (U/mg) [14]: 0.66 U/mg
- Inhibition after [14]: 40 mM

B6: H296F: HisVAC mutant, histidine 296 replaced with Phe (protein)
chain: B1 chain with Y215A, H296F
- Km [13]: 1.9 mM
- Vmax (U/mg) [13]: 1.7 U/mg
- Inhibition after [13]: 50 mM
- Km [14]: 4.1 mM
- Vmax (U/mg) [14]: 0.05 U/mg
- Inhibition after [14]: 60 mM
